US20190002436A1, “RESPIRATORY SYNCYTIAL VIRUS INHIBITORS” (MEDIVIR AB, priority 2015, published 2019)

The compounds below were run on RSV (Long) (assay: RSV cytopathic effect (CPE)-based viral replication assay). Settings: HEp-2 cells infected with RSV Long at MOI 0.015; 3 days at 37° C.; cell viability by CellTiter-Glo luminescence; read-out: EC50 (nm).
Assay type: cell-based, respiratory syncytial virus (RSV)
Procedure: Example A: RSV Cytopathic Effect
Compounds of the invention are initially tested in a cytopathic effect (CPE)-based viral replication assay using immortalized cells and a laboratory strain of RSV (Long). This assay evaluates the ability of a compound to inhibit viral replication.
Assay plates are prepared by seeding 2,500 HEp-2 cells (ATCC) per well of a 384-well black clear-bottom plate (Greiner Bio-One) in 20 μL of assay media (defined as DMEM supplemented with 2% heat-inactivated fetal bovine serum and 1% Penicillin/Streptomycin). Assay plates are incubated overnight at 37° C. in an incubator containing 5% CO2. The following day, a 10-point serial dilution of test compound is prepared in DMSO. Compounds are subsequently diluted with assay media and 20 μL of diluted compound (containing 1.5% DMSO) is transferred to an assay plate for evaluation of antiviral activity.
For the CPE assay, cells are infected at a Multiplicity of Infection (MOI) of 0.015 using 20 μL of RSV Long (ATCC) diluted in assay media. The DMSO concentration is constant throughout the assay plate, including the negative and positive controls. The assay plate is incubated for 3 days at 37° C. in an incubator containing 5% CO2. Cell viability is evaluated with the addition of 10 μL of CellTiter-Glo (ProMega). Luminescence is measured using an EnVision plate reader (Perkin Elmer). EC50 values are calculated using the raw data from the CPE assays.

Question: For CS(=O)(=O)N1CCC2(CC1)C(=O)N(Cc1ncc3ccccc3c1C1CNC(=O)C1)c1cnccc12 (stereo not shown) [Example 2018], which EC50 is on record?
Answer: Its EC50 is 50 nM.

Question: How did the EC50 turn out when COC(=O)NC1CC2(C1)C(=O)N(Cc1ncc3ccccc3c1-c1ccc(C#N)nc1)c1ccccc12 (stereo not shown) [Example 84-2] was run?
Answer: Its EC50 is 4.5 nM.

Question: For O=C1N(Cc2ncc3ccccc3c2-c2ccc(F)nc2)c2ccccc2C12CC(NCCF)C2 (single isomer, unassigned) [Example 87-2, 3-((2-fluoroethyl)amino)-1′-((4-(6-fluoropyridin-3-yl)isoquinolin-3-yl)methyl)spiro[cyclobutane-1,3′-indolin]-2′-one], which EC50 is on record?
Answer: The EC50 was 4.6 nM.

Same assay, conditions: human respiratory syncytial virus, HEp-2, 72 h, HEp-2 cells infected with RSV Long at MOI 0.015; 3 days at 37° C.; cell viability by CellTiter-Glo luminescence; read-out: EC50 (nm)

Question: How did the EC50 turn out when CN1CCN(Cc2ccc3c(CCCCO)c(Cn4c(=O)n(C5CC5)c5ccncc54)ncc3c2)CC1 [Example 43j, 1-Cyclopropyl-3-((4-(4-hydroxybutyl)-7-((4-methylpiperazin-1-yl)methyl)isoquinolin-3-yl)methyl)-1H-imidazo[4,5-c]pyridin-2(3H)-one] was run?
Answer: The EC50 was 2500 nM.

Question: How did the EC50 turn out when CN(C)C1(C(=O)N2CC3(C2)C(=O)N(Cc2ncc4ccccc4c2-c2ccc(C(N)=O)nc2)c2ccccc23)CC1 [Example 113b, 5-(3-((1-(1-(Dimethylamino)cyclopropanecarbonyl)-2′-oxospiro[azetidine-3,3′-indolin]-1′-yl)methyl)isoquinolin-4-yl)picolinamide] was run?
Answer: Its EC50 is 17 nM.

Question: How did the EC50 turn out when CNC1(C(=O)N2CCC3(CC2)C(=O)N(Cc2ncc4ccccc4c2-c2ccc(C(=O)NC4CC4)nc2)c2cnccc23)CC1 [Example 109, N-cyclopropyl-5-(3-((1-(1-(methylamino)cyclopropanecarbonyl)-2′-oxospiro[piperidine-4,3′-pyrrolo[2,3-c]pyridin]-1′(2′H)-yl)methyl)isoquinolin-4-yl)picolinamide] was run?
Answer: Its EC50 is 3.8 nM.

Question: How did the EC50 turn out when CS(=O)(=O)N1CCC2(CC1)C(=O)N(Cc1ncc3cc(F)ccc3c1-c1cccnc1)c1cnccc12 [Example 2034] was run?
Answer: Its EC50 is 2.6 nM.

Question: Which EC50 does the source give for NC(C(=O)N1CCC2(CC1)C(=O)N(Cc1ncc3ccccc3c1-c1cncs1)c1cnccc12)C(F)(F)F (stereo not shown) [Example 2040] here?
Answer: The EC50 was 1.9 nM.

Question: For N#Cc1ccc(-c2c(CN3C(=O)C4(CN(C(N)=O)C4)c4ccccc43)ncc3ccccc23)cn1 [Example 77], which EC50 is on record?
Answer: Its EC50 is 3 nM.

Question: With COC(=O)N1CCC(n2c(=O)n(Cc3ncc4ccccc4c3CCCCO)c3cncc(Cl)c32)CC1 [Example 15, Methyl 4-(7-chloro-3-((4-(4-hydroxybutyl)isoquinolin-3-yl)methyl)-2-oxo-2,3-dihydro-1H-imidazo[4,5-c]pyridin-1-yl)piperidine-1-carboxylate] as the compound, how does the EC50 read?
Answer: The EC50 was 2.2 nM.

Question: For NC1(C(=O)N2CCC3(CC2)C(=O)N(Cc2ncc4ccccc4c2-c2ncco2)c2cnccc23)CC1 [Example 2021], which EC50 is on record?
Answer: The EC50 was 690 nM.

Question: With O=C1N(Cc2ncc3ccccc3c2CCCCO)c2ccccc2C12CNC2 [Example 40, 1′-((4-(4-Hydroxybutyl)isoquinolin-3-yl)methyl)spiro[azetidine-3,3′-indolin]-2′-one] as the compound, how does the EC50 read?
Answer: Its EC50 is 110 nM.

Question: Which EC50 does the source give for CNC1(C(=O)N2CC3(C2)C(=O)N(Cc2ncc4ccccc4c2-c2ccc(C#N)nc2)c2ccccc23)CC1 [Example 63, 5-(3-((1-(1-(Methylamino)cyclopropanecarbonyl)-2′-oxospiro[azetidine-3,3′-indolin]-1′-yl)methyl)isoquinolin-4-yl)picolinonitrile] here?
Answer: Its EC50 is 1.5 nM.

Question: Which EC50 does the source give for CS(=O)(=O)N1CC2(C1)C(=O)N(Cc1ncc3ccccc3c1-c1cccnc1)c1ccccc12 [Example 154, 1-(Methylsulfonyl)-1′-((4-(pyridin-3-yl)isoquinolin-3-yl)methyl)spiro[azetidine-3,3′-indolin]-2′-one] here?
Answer: Its EC50 is 1.4 nM.

Question: How did the EC50 turn out when CC(C)(C)c1ccc(-c2c(CN3C(=O)C4(CN(S(C)(=O)=O)C4)c4ccccc43)ncc3ccccc23)cc1 [Example 71, 1′-((4-(4-(Tert-butyl)phenyl)isoquinolin-3-yl)methyl)-1-(methylsulfonyl)spiro[azetidine-3,3′-indolin]-2′-one] was run?
Answer: The EC50 was 200 nM.

Question: With COC(=O)NC1CC2(C1)C(=O)N(Cc1ncc3ccccc3c1-c1ccc(C#N)nc1)c1ccccc12 (stereo not shown) [Example 84-1] as the compound, how does the EC50 read?
Answer: The EC50 was 7.2 nM.

Question: How did the EC50 turn out when O=c1n(Cc2ncc3cc(F)ccc3c2CCCCO)c2cnccc2n1C1CC1 [Example 6g, 1-cyclopropyl-3-((7-fluoro-4-(4-hydroxybutyl)isoquinolin-3-yl)methyl)-1H-imidazo[4,5-c]pyridin-2(3H)-one] was run?
Answer: The EC50 was 41 nM.

Question: With CS(=O)(=O)N1CCC2(CC1)C(=O)N(Cc1ncc3ccccc3c1-c1cn[nH]c1)c1cnccc12 [Example 2029] as the compound, how does the EC50 read?
Answer: The EC50 was 2.6 nM.

Question: With NC1(C(=O)N2CC3(C2)C(=O)N(Cc2ncc4ccccc4c2-c2cncc(F)c2)c2ccccc23)CC1 [Example 94, 1-(1-aminocyclopropanecarbonyl)-1′-((4-(5-fluoropyridin-3-yl)isoquinolin-3-yl)methyl)spiro[azetidine-3,3′-indolin]-2′-one] as the compound, how does the EC50 read?
Answer: The EC50 was 20 nM.

Question: With CS(=O)(=O)N1CCC2(CC1)C(=O)N(Cc1ncc3cc(Cl)ccc3c1-c1ccncc1)c1cnccc12 [Example 2009] as the compound, how does the EC50 read?
Answer: The EC50 was 0.35 nM.

Question: With NC(=O)c1ccc(-c2c(CN3C(=O)C4(CCN(C(=O)[C@@H](N)CO)CC4)c4ccncc43)ncc3ccccc23)cn1 [Example 2032] as the compound, how does the EC50 read?
Answer: Its EC50 is 2.7 nM.

Question: How did the EC50 turn out when CNC1(C(=O)N2CCC3(CC2)C(=O)N(Cc2ncc4ccccc4c2-c2ccc(C(=O)N(C)C)nc2)c2cnccc23)CC1 [Example 122, N,N-dimethyl-5-(3-((1-(1-(methylamino)cyclopropanecarbonyl)-2′-oxospiro[piperidine-4,3′-pyrrolo[2,3-c]pyridin]-1′(2′H)-yl)methyl)isoquinolin-4-yl)picolinamide] was run?
Answer: The EC50 was 8.5 nM.

Question: CS(=O)(=O)N1CCC2(CC1)C(=O)N(Cc1ncc3ccccc3c1-c1cccnc1)c1cnccc12 [Example 136, 1-(methylsulfonyl)-1′-((4-(pyridin-3-yl)isoquinolin-3-yl)methyl)spiro[piperidine-4,3′-pyrrolo[2,3-c]pyridin]-2′(1′H)-one] was tested. Which EC50 did it give?
Answer: Its EC50 is 0.8 nM.

Question: For COC(=O)N1CC2(CC(n3c(=O)n(Cc4ncc5ccccc5c4CCCCO)c4ccccc43)C2)C1 [Example 17, Methyl 6-(3-((4-(4-hydroxybutyl)isoquinolin-3-yl)methyl)-2-oxo-2,3-dihydro-1H-benzo[d]imidazol-1-yl)-2-azaspiro[3.3]heptane-2-carboxylate], which EC50 is on record?
Answer: The EC50 was 58 nM.

Question: With NC1(NC(=O)N2CC3(C2)C(=O)N(Cc2ncc4ccccc4c2-c2cccnc2)c2ccccc23)CC1 [Example 155, N-(1-aminocyclopropyl)-2′-oxo-1′-((4-(pyridin-3-yl)isoquinolin-3-yl)methyl)spiro[azetidine-3,3′-indoline]-1-carboxamide] as the compound, how does the EC50 read?
Answer: The EC50 was 2 nM.

Question: N#Cc1ccc2c(CCCCO)c(Cn3c(=O)n(C4CC4)c4ccncc43)ncc2c1 [Example 25, 3-((1-cyclopropyl-2-oxo-1H-imidazo[4,5-c]pyridin-3(2H)-yl)methyl)-4-(4-hydroxybutyl)isoquinoline-7-carbonitrile] was tested. Which EC50 did it give?
Answer: Its EC50 is 280 nM.

Question: With NCCCC(=O)N1CC2(C1)C(=O)N(Cc1ncc3ccccc3c1-c1cccnc1)c1ccccc12 [Example 151, 1-(4-Aminobutanoyl)-1′-((4-(pyridin-3-yl)isoquinolin-3-yl)methyl)spiro[azetidine-3,3′-indolin]-2′-one] as the compound, how does the EC50 read?
Answer: Its EC50 is 2.7 nM.

Question: How did the EC50 turn out when NC1(C(=O)N2CC3(C2)C(=O)N(Cc2ncc4ccccc4c2-c2ccc(S(N)(=O)=O)cc2)c2ccccc23)CC1 [Example 125, 4-(3-((1-(1-aminocyclopropanecarbonyl)-2′-oxospiro[azetidine-3,3′-indolin]-1′-yl)methyl)isoquinolin-4-yl)benzenesulfonamide] was run?
Answer: Its EC50 is 6 nM.

Question: NC(=O)c1ccc(-c2c(CN3C(=O)C4(CN(C(=O)C5(N)CC5)C4)c4ccccc43)ncc3ccccc23)cn1 [Example 2008] was tested. Which EC50 did it give?
Answer: The EC50 was 15 nM.

Question: With NC1(C(=O)N2CCC3(CC2)C(=O)N(Cc2ncc4ccccc4c2-c2cccnc2)c2cnccc23)CC1 [Example 137] as the compound, how does the EC50 read?
Answer: The EC50 was 5.4 nM.

Same assay, conditions: human respiratory syncytial virus, HEp-2, 72 h, read-out: EC50 (nm)

Question: With CN1CC2(C1)C(=O)N(Cc1ncc3ccccc3c1CCCCO)c1ccccc12 [Example 41, 1′-((4-(4-Hydroxybutyl)isoquinolin-3-yl)methyl)-1-methylspiro[azetidine-3,3′-indolin]-2′-one] as the compound, how does the EC50 read?
Answer: Its EC50 is 660 nM.

Question: For CNC(=O)OC1CC2(C1)C(=O)N(Cc1ncc3ccccc3c1-c1ccc(C#N)nc1)c1ccccc12 (stereo not shown) [Example 89, 1′-((4-(6-Cyanopyridin-3-yl)isoquinolin-3-yl)methyl)-2′-oxospiro[cyclobutane-1,3′-indolin]-3-yl methylcarbamate], which EC50 is on record?
Answer: Its EC50 is 5.8 nM.

Question: COC(=O)N1CC2(C1)C(=O)N(Cc1ncc3ccccc3c1-c1ccc(C#N)c(F)c1)c1ccccc12 [Example 93, Methyl 1′-((4-(4-cyano-3-fluorophenyl)isoquinolin-3-yl)methyl)-2′-oxospiro[azetidine-3,3′-indoline]-1-carboxylate] was tested. Which EC50 did it give?
Answer: Its EC50 is 4.4 nM.

Question: Which EC50 does the source give for COC(=O)N1CCC2(CC1)C(=O)N(Cc1ncc3ccccc3c1-c1cccnc1)c1cnccc12 [Example 144, Methyl 2′-oxo-1′-((4-(pyridin-3-yl)isoquinolin-3-yl)methyl)-1′,2′-dihydrospiro[piperidine-4,3′-pyrrolo[2,3-c]pyridine]-1-carboxylate] here?
Answer: The EC50 was 1.1 nM.
